Experimental data taken from article PMC11876601 (Molecular Systems Biology, 2025).

Experiments:
CDK5 = system: CDK5; set-up: method as in Klaeger et al. (2017); details: lysate 4 cell line mix (Colo205, K-562, MV-4-11, and SK-N-BE(2)), Kinobeads y, ref Klaeger et al. (2017); cited from earlier work
NTRK1 = system: NTRK1; set-up: method as in Klaeger et al. (2017); details: lysate 4 cell line mix (Colo205, K-562, MV-4-11, and SK-N-BE(2)), Kinobeads y, ref Klaeger et al. (2017); cited from earlier work
HuP-T4 = assay: cells; set-up: ATPlite luminescence viability of PDAC cell lines, 11-dose single-agent curves, 4-parameter fit; details: Homo sapiens, HuP-T4, 72 h, read-out: EC50 [nM]
Summary of the method: (§1)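 cells (1000 to 5000 per well) seeded 24 h before drug addition in a combination screen at 0.2% final DMSO. Controls were drug-free wells (negative) and 5 µM staurosporine (positive).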

STK3 ; Q13188;Q13188-2 = STK3 ; Q13188;Q13188-2 (Homo sapiens, UniProt Q13188); assay: biochemical; set-up: species or system AsPC-1; Kinobeads competition pulldown in AsPC-1 lysate with LC-MS/MS label-free quantification; apparent Kd
Sequence of STK3 ; Q13188;Q13188-2 (Q13188 whole entry): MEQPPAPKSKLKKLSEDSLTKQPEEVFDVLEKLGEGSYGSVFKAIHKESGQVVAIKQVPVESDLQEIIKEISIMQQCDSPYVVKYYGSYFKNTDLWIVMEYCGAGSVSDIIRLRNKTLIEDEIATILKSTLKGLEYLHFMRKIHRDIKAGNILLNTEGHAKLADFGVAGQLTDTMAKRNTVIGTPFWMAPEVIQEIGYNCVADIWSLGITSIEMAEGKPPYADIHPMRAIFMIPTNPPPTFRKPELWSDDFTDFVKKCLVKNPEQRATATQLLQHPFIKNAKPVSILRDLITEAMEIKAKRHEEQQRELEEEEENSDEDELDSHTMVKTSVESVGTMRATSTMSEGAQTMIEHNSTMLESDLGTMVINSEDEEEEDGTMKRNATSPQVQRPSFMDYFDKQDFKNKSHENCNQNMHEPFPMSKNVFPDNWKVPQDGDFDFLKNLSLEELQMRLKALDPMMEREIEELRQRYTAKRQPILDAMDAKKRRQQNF

GSK3B ; P49841-2;P49841 = GSK3B ; P49841-2;P49841 (Homo sapiens, UniProt P49841); assay: biochemical; set-up: species or system AsPC-1; Kinobeads competition pulldown in AsPC-1 lysate with LC-MS/MS label-free quantification; apparent Kd
Sequence of GSK3B ; P49841-2;P49841 (P49841 whole entry): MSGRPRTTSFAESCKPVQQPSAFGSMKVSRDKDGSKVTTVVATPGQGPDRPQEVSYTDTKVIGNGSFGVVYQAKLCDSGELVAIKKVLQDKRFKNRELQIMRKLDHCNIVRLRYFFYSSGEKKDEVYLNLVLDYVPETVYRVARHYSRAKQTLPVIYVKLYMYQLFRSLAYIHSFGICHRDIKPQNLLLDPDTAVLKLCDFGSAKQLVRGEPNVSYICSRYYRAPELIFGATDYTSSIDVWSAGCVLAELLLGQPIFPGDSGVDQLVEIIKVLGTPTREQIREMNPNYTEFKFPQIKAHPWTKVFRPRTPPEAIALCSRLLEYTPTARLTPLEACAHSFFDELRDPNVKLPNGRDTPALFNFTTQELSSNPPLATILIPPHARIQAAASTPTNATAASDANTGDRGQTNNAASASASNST

FN3KRP ; Q9HA64 = FN3KRP ; Q9HA64 (Homo sapiens, UniProt Q9HA64); assay: biochemical; set-up: species or system AsPC-1; Kinobeads competition pulldown in AsPC-1 lysate with LC-MS/MS label-free quantification; apparent Kd
Sequence of FN3KRP ; Q9HA64 (Q9HA64 whole entry): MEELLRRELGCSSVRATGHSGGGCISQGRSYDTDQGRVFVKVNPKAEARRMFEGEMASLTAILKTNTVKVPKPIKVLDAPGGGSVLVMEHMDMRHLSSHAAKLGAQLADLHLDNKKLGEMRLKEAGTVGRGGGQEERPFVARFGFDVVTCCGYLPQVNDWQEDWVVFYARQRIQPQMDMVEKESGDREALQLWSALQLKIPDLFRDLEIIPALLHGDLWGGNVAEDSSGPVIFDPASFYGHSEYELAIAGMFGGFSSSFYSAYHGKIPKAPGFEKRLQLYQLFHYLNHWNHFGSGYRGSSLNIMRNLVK

[1] = target: CIT ; O14578-4;O14578;O14578-2 (Homo sapiens, UniProt O14578); assay: biochemical; set-up: species or system AsPC-1; Kinobeads competition pulldown in AsPC-1 lysate with LC-MS/MS label-free quantification; apparent Kd
Sequence of CIT ; O14578-4;O14578;O14578-2 (O14578 whole entry): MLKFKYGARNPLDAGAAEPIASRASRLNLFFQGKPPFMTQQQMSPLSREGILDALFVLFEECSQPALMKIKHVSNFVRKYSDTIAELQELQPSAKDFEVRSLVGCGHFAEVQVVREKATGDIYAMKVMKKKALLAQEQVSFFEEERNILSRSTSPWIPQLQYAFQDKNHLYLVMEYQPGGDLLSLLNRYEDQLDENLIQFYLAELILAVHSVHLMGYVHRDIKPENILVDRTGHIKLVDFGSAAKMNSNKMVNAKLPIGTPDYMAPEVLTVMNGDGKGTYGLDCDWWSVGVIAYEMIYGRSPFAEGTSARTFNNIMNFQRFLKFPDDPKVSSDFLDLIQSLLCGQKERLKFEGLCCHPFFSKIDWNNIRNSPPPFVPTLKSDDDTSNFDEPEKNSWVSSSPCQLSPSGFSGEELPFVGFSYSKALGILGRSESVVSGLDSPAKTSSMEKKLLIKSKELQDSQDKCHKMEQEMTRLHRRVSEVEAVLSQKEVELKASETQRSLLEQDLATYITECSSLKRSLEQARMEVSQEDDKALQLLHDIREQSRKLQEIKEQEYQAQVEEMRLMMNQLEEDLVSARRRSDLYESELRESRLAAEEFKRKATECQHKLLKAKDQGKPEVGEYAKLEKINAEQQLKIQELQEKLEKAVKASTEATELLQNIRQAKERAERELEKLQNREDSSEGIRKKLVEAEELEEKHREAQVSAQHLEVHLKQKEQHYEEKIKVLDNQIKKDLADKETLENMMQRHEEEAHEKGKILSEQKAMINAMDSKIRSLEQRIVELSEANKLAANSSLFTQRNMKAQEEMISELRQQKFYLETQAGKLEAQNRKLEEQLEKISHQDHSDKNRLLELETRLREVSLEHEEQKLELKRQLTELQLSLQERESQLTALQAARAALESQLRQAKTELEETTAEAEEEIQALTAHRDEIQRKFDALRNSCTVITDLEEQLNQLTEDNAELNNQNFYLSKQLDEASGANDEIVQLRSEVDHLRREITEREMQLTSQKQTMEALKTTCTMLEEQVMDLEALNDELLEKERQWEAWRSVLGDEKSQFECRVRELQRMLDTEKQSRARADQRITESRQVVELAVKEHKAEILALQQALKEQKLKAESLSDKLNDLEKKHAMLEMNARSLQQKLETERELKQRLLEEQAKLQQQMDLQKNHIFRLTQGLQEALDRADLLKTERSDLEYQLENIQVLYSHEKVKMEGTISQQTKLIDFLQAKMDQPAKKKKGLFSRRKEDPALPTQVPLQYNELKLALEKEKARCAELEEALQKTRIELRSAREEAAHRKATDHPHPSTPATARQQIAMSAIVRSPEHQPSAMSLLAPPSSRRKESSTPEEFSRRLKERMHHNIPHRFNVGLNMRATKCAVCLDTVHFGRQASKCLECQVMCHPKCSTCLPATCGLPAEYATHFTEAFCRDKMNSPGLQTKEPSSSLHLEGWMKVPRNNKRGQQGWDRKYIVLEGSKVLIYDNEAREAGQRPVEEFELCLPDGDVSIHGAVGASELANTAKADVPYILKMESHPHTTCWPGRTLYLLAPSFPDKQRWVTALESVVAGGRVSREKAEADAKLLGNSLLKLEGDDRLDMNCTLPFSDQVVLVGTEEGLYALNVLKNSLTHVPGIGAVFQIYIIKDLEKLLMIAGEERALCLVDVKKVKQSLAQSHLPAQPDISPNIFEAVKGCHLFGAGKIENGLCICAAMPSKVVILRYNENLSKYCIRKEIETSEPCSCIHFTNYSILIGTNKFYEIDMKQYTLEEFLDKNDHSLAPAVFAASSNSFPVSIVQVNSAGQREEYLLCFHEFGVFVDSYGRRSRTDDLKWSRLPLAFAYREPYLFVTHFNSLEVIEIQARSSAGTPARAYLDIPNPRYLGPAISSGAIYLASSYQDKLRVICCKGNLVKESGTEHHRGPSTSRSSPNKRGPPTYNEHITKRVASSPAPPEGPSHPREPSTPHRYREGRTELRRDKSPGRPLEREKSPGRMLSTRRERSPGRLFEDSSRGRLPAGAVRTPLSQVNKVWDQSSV

CDC42BPG ; Q6DT37 = CDC42BPG ; Q6DT37 (Homo sapiens, UniProt Q6DT37); assay: biochemical; set-up: species or system AsPC-1; Kinobeads competition pulldown in AsPC-1 lysate with LC-MS/MS label-free quantification; apparent Kd
Sequence of CDC42BPG ; Q6DT37 (Q6DT37 whole entry): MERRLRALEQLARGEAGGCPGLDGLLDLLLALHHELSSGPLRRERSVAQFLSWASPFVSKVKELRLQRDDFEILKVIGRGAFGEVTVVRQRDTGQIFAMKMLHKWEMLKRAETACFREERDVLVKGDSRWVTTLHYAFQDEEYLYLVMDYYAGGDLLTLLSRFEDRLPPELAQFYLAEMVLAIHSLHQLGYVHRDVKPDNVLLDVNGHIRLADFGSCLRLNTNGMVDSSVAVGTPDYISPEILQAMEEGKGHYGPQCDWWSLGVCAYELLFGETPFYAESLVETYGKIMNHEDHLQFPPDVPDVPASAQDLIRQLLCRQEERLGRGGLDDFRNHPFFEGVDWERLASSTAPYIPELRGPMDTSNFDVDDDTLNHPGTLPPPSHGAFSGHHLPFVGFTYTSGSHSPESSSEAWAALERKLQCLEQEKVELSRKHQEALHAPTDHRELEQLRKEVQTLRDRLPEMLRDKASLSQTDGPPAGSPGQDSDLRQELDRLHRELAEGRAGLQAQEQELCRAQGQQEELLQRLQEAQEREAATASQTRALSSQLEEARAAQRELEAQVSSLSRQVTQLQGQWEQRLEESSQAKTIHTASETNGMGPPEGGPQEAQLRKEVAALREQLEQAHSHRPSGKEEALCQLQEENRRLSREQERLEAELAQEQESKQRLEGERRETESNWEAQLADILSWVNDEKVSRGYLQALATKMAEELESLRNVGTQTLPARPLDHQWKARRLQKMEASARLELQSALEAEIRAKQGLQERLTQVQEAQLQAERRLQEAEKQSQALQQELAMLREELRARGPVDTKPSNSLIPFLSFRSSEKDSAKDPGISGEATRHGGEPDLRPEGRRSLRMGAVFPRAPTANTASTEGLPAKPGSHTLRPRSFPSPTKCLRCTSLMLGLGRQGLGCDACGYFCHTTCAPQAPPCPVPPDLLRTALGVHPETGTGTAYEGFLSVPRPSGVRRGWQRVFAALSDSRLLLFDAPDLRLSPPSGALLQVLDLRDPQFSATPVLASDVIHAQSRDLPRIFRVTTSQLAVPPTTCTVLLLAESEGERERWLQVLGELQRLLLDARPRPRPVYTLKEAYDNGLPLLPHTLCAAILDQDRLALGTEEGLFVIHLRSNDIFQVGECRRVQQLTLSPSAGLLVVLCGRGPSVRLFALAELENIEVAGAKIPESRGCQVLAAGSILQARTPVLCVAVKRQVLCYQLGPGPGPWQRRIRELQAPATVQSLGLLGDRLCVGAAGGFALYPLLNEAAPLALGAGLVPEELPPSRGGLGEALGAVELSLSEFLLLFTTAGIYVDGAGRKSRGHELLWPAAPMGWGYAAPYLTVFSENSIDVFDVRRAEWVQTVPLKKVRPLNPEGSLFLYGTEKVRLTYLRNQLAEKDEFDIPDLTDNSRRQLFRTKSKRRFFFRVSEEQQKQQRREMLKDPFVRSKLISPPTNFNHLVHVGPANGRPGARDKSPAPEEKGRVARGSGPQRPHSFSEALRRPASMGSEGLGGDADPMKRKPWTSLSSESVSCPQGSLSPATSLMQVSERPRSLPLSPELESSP

PRKAB2 = system: PRKAB2; set-up: method as in Reinecke et al. (2023); details: PRKAB2, 5 cell line mix lysate, Kinobeads ε, ref Reinecke et al. (2023), cited from earlier work
AXL = target: AXL; set-up: method as in Reinecke et al. (2023); details: 5 cell line mix lysate, Kinobeads ε, ref Reinecke et al. (2023), cited from earlier work
AZI2 = details: AZI2, 5 cell line mix lysate, Kinobeads ε, ref Reinecke et al. (2023), cited from earlier work
RPS6KA3 = system: RPS6KA3; set-up: method as in Reinecke et al. (2023); details: RPS6KA3, 5 cell line mix lysate, Kinobeads ε, ref Reinecke et al. (2023), cited from earlier work
TAOK2 = system: TAOK2; set-up: method as in Reinecke et al. (2023); details: TAOK2, 5 cell line mix lysate, Kinobeads ε, ref Reinecke et al. (2023), cited from earlier work
PRKAA2 = system: PRKAA2; set-up: method as in Reinecke et al. (2023); details: PRKAA2, 5 cell line mix lysate, Kinobeads ε, ref Reinecke et al. (2023), cited from earlier work
RPS6KA6 = system: RPS6KA6; set-up: method as in Reinecke et al. (2023); details: RPS6KA6, 5 cell line mix lysate, Kinobeads ε, ref Reinecke et al. (2023), cited from earlier work
FAMPAC = assay: cells; set-up: ATPlite luminescence viability of PDAC cell lines, 11-dose single-agent curves, 4-parameter fit; details: 72 h, read-out: EC50 [nM]
Summary of the method: as §1

Suit2-07 = assay: cells; set-up: ATPlite luminescence viability of PDAC cell lines, 11-dose single-agent curves, 4-parameter fit; details: 72 h, read-out: EC50 [nM]
Summary of the method: as §1

Structure (SMILES): C[C@]12O[C@H](C[C@]1(O)CO)n1c3ccccc3c3c4c(c5c6ccccc6n2c5c31)CNC4=O [Lestaurtinib]
- EC50 (NTRK1): 0.795 µM

Structure (SMILES): C[C@@H]1COCCN1c1cc(-c2ccnn2C)c2ccnc(-c3ccn[nH]3)c2n1 [Elimusertib]
- EC50 (HuP-T4): 359 nM

Structure (SMILES): CNCc1ccc(-c2cc(-c3nc(-c4ccc(S(=O)(=O)C(C)C)cc4)cnc3N)on2)cc1 [Berzosertib]
- Kd (STK3 ; Q13188;Q13188-2): 0.0702 µM
- Kd (GSK3B ; P49841-2;P49841): 0.0332 µM

Structure (SMILES): Nc1nn2cc(F)cnc2c1C(=O)Nc1cncc(F)c1N1CCC(C(=O)N2CCN(C3COC3)CC2)CC1 [Gartisertib]
- Kd (FN3KRP ; Q9HA64): 0.358 µM
- Kd [1]: 0.04 µM
- Kd (CDC42BPG ; Q6DT37): 0.0169 µM

Structure (SMILES): COc1cc(N2CCC(N3CCN(C)CC3)CC2)ccc1Nc1ncc(Cl)c(Nc2ccccc2P(C)(C)=O)n1 [Brigatinib]
- EC50 (PRKAB2): 0.546 µM
- pKDapp (PRKAB2): 6.48
- Kd (PRKAB2; read-out: KDapp): 0.328 µM
- Kd (AXL; read-out: KDapp): 0.635 µM
- EC50 (AXL): 0.635 µM
- pKDapp (AXL): 6.20
- EC50 (AZI2): 1.12 µM
- pKDapp (AZI2): 6.10
- Kd (AZI2; read-out: KDapp): 0.789 µM
- EC50 (RPS6KA3): 0.162 µM
- pKDapp (RPS6KA3): 6.93
- Kd (RPS6KA3; read-out: KDapp): 0.118 µM
- EC50 (TAOK2): 3.11 µM
- pKDapp (TAOK2): 5.74
- Kd (TAOK2; read-out: KDapp): 1.83 µM
- EC50 (PRKAA2): 1.16 µM
- pKDapp (PRKAA2): 6.28
- Kd (PRKAA2; read-out: KDapp): 0.527 µM
- EC50 (RPS6KA6): 0.0936 µM
- pKDapp (RPS6KA6): 7.40
- Kd (RPS6KA6; read-out: KDapp): 0.0395 µM

Structure (SMILES): CCN1CCN(Cc2ccc(Nc3ncc(F)c(-c4cc(F)c5nc(C)n(C(C)C)c5c4)n3)nc2)CC1 [Abemaciclib]
- EC50 (FAMPAC): > 10000 nM
- EC50 (Suit2-07): 250 nM
